# Assays:
# S. aureus ATCC 13709 = test: MIC, S. aureus ATCC 13709 (Alamar Blue broth microdilution); format: cell-based; conditions: Alamar Blue read after overnight incubation at 35° C.; for MIC: Staphylococcus aureus, ATCC13709, S. aureus; for MIC Sa: S. aureus
# E. coli ATCC 25922 = test: MIC, E. coli ATCC 25922; format: cell-based; conditions: Alamar Blue read after overnight incubation at 35° C.; for MIC: Escherichia coli, ATCC25922, E. coli; for MIC Ec: E. coli
SMILES,MIC (S. aureus ATCC 13709) [µg/mL],MIC (E. coli ATCC 25922) [µg/mL],MIC Sa (S. aureus ATCC 13709) [µg/mL],MIC Ec (E. coli ATCC 25922) [µg/mL]
CNc1cc(F)cc2c1[nH]c1nc(Oc3cnc(CC(=O)N(C)OC)nc3)nc(N3C[C@H](N)C4(CC4)C3)c12 [4.370],≤ 0.5,1,–,–
CNc1cc(F)cc2c1[nH]c1nc(Oc3cnc(CC(=O)NOC)nc3)nc(N3CC(N)C4(CC4)C3)c12 (stereo not drawn) [4.371],–,–,1,16
CNc1cc(F)cc2c1[nH]c1nc(Oc3cnc(CC(=O)N4CCC(N)C4)nc3)nc(N3CC(N)C4(CC4)C3)c12 (stereo not drawn) [4.372],–,–,4,16
CNc1cc(F)cc2c1[nH]c1nc(Oc3cnc(CC(=O)N4CC(N(C)C)C4)nc3)nc(N3C[C@H](N)C4(CC4)C3)c12 [4.373],2,8,–,–
CNc1cc(F)cc2c1[nH]c1nc(Oc3cnc(C(N)=O)nc3)nc(N3C[C@H]4C[C@@H](N)[C@H]4C3)c12 [4.374],≤ 0.5,4,–,–
CNc1cc(F)cc2c1[nH]c1nc(Oc3cnc(C(N)=O)nc3)nc(N3C[C@H](N)C4(CC4)C3)c12 [4.375],≤ 0.5,4,–,–
CNc1cc(F)cc2c1[nH]c1nc(Oc3ccc4nc5n(c(=O)c4c3)CCC5)nc(N3CC4C[C@@H](N)C4C3)c12 (stereo partly drawn) [4.376],> 16,> 16,–,–
CNc1cc(F)cc2c1[nH]c1nc(Oc3ccc4nc5n(c(=O)c4c3)CCC5)nc(N3CC4(CCC4N)C3)c12 (stereo not drawn) [4.377],–,–,4,16
CNc1cc(F)cc2c1[nH]c1nc(Oc3cnc(Cl)nc3)nc(N3CC4CC(N)C4C3)c12 (stereo not drawn) [4.378],–,–,≤0.5,≤0.5
CNc1cc(F)cc2c1[nH]c1nc(Oc3cnc(Cl)nc3)nc(N3CC4C(N)CC4(C)C3)c12 (stereo not drawn) [4.379],–,–,≤0.5,≤0.5
CNc1cc(F)cc2c1[nH]c1nc(Oc3ccc4c(c3)C(=O)NC43CC3)nc(N3CC4(CCC4N)C3)c12 (stereo not drawn) [4.380],–,–,4,16
CNc1cc(F)cc2c1[nH]c1nc(Oc3ccc4c(c3)C(=O)NC43CC3)nc(N3CC4CC(N)C4C3)c12 (stereo not drawn) [4.381],–,–,4,16
CNc1cc(F)cc2c1[nH]c1nc(Oc3cc(O)c4c(C)cc(=O)oc4c3)nc(N3CC4CC(N)C4C3)c12 (stereo not drawn) [4.382],–,–,1,16
CNc1cc(F)cc2c1[nH]c1nc(Oc3cc(O)cc4oc(=O)cc(C)c34)nc(N3CC4CC(N)C4C3)c12 (stereo not drawn) [4.383],–,–,4,>16
CCNC(=O)c1cncc(Oc2nc(NCC)c3c(n2)[nH]c2c(NC)cc(F)cc23)c1 [4.384],–,–,1,>16
CNc1cc(F)cc2c1[nH]c1nc(Oc3cnc(S(C)(=O)=O)nc3)nc(N3CC4C(N)CC4(C)C3)c12 (stereo not drawn) [4.385],–,–,≤0.5,≤0.5
CNc1cc(F)cc2c1[nH]c1nc(Oc3cnc(CO)nc3)nc(N3CC4CC(N)C4C3)c12 (stereo not drawn) [4.386],≤ 0.5,≤ 0.5,–,–
CNc1cc(F)cc2c1[nH]c1nc(Oc3cnc(CO)nc3)nc(N3CC(N)C4(CC4)C3)c12 (stereo not drawn) [4.387],–,–,≤0.5,≤0.5
CNc1cc(F)cc2c1[nH]c1nc(Oc3cnc(CO)nc3)nc(N3CC4(CC[C@H]4N)C3)c12 [4.388],≤ 0.5,≤ 0.5,–,–
CNc1cc(F)cc2c1[nH]c1nc(Oc3cnc(CO)nc3)nc(N3CC4C(N)CC4(C)C3)c12 (stereo not drawn) [4.389],–,–,≤0.5,≤0.5
CNc1cc(F)cc2c1[nH]c1nc(Oc3cnc(CO)nc3)nc(N3CC4CC3C[C@@H]4N)c12 (stereo partly drawn) [4.390],≤ 0.5,≤ 0.5,–,–
CNc1cc(F)cc2c1[nH]c1nc(Oc3cnc(CO)nc3)nc(N3C[C@@H]4C[C@H]3C[C@@H]4N)c12 [4.391],≤ 0.5,≤ 0.5,–,–
CNc1cc(F)cc2c1[nH]c1nc(Oc3ccc(CO)nc3)nc(N3CC4CC3C[C@@H]4N)c12 (stereo partly drawn) [4.392],16,> 16,–,–
CNc1cc(F)cc2c1[nH]c1nc(Oc3cnc(CN)nc3)nc(N3CC4CC3CC4N)c12 (stereo not drawn) [4.393],–,–,≤0.5,1
CNc1cc(F)cc2c1[nH]c1nc(Oc3cnc(CN)nc3)nc(N3CC4CC(N)C4C3)c12 (stereo not drawn) [4.394],–,–,≤0.5,≤0.5
CNc1cc(F)cc2c1[nH]c1nc(Oc3cnc4c(c3)C(=O)N(C)C4C)nc(N3CC4CC(N)C4C3)c12 (stereo not drawn) [4.397],–,–,≤0.5,≤0.5
CNc1cc(F)cc2c1[nH]c1nc(Oc3cnc4c(c3)C(=O)N(C)C4C)nc(N3CC4CC3C[C@@H]4N)c12 (stereo partly drawn) [4.398],≤ 0.5,≤ 0.5,–,–
CNc1cc(F)cc2c1[nH]c1nc(Oc3cnc(-c4nccn4C)nc3)nc(N3C[C@H](N)C4(CC4)C3)c12 [4.399],≤ 0.5,2,–,–
CCOC(=O)c1ncc(Oc2nc(N3CC4CC3C[C@@H]4N)c3c(n2)[nH]c2c(NC)cc(F)cc23)cn1 (stereo partly drawn) [4.400],≤ 0.5,≤ 0.5,–,–
CCOC(=O)c1ncc(Oc2nc(N3CC4C[C@@H](N)C4C3)c3c(n2)[nH]c2c(NC)cc(F)cc23)cn1 (stereo partly drawn) [4.401],≤ 0.5,≤ 0.5,–,–
